This is an account of results in the SangsterLogP compilation.

The nature of the data set: method code SF-GLC, from DOI: 10.1016/s0022-3565(25)29827-5, PMID: 4823294. The following applies: pH 7.4.

As to `CC(C)(C)COC(N)=O`, the pH-dependent lipophilicity (logD) stood at 0.94.

`CCC(C)(C)COC(N)=O`: the logD is 1.45.

Turning to `CCCCCCCCOC(N)=O`, the logD came to 2.84.

In turn, `NC(=O)OCc1ccccc1` displayed a logD of 1.23.

Regarding `CCCCCCCOC(N)=O`, the logD was 2.36.

`CCCCCOC(N)=O` displayed a pH-dependent lipophilicity (logD) of 1.35.

`CCCOC(N)=O` displayed a pH-dependent lipophilicity (logD) of 0.36.

As for `CCCCOC(N)=O`, the log distribution coefficient (logD) stood at 0.85.

`CCCCCCOC(N)=O` came in with a logD of 1.85.

`CC(C)(C)OC(N)=O` displayed a logD of 0.48.
